Tests used:
[1] = molecular target: G/T mismatch-specific thymine DNA glycosylase (Homo sapiens) (UniProt Q13569); conditions: Hit No;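 note: human TDG cleavage of quenched duplex DNA oligonucleotides coupled to APE1, strand release read as fluorescence at 594 nm, inhibition of TDG activity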
[2] = molecular target: T1, Endonuclease III-like protein 1 (Homo sapiens) (UniProt P78549); conditions: Hit No;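 note: enzyme assay tracking NTHL1 cutting and release of a quenched double-stranded DNA oligo substrate, read as fluorescence at 594 nm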
T1 sequence (whole entry): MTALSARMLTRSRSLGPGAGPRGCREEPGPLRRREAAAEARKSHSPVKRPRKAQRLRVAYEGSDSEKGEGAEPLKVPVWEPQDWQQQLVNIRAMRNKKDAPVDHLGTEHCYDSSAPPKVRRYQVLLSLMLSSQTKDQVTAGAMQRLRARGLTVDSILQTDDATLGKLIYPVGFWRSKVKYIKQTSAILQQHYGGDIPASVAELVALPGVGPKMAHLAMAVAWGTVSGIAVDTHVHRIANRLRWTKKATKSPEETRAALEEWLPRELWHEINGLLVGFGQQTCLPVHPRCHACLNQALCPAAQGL

[3] = molecular target: Uracil-DNA glycosylase (Homo sapiens) (UniProt P13051); conditions: Hit No;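 note: UNG excision on a quenched double-stranded DNA oligo probe, with APE1 added for strand incision and turnover, read as fluorescence at 594 nm as strands separate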
Uracil-DNA glycosylase (Homo sapiens), sequence (P13051 whole entry, the tested form may be a part): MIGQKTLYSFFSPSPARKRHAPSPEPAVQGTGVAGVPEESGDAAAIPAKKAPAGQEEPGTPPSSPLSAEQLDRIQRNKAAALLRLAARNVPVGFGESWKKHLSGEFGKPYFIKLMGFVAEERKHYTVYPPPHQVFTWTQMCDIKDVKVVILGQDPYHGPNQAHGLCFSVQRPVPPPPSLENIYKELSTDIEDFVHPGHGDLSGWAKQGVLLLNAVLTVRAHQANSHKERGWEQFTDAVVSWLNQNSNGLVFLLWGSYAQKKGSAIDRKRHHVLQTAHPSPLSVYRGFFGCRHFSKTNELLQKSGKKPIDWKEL

[4] = molecular target: Methyl-CpG-binding domain protein 4 (Homo sapiens) (UniProt O95243); conditions: Hit No;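 note: MBD4 activity read as fluorescence at 594 nm from cleavage and release of a quenched duplex DNA oligonucleotide, with APE1 coupled to incise the strand and raise turnover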
Methyl-CpG-binding domain protein 4 (Homo sapiens), sequence (O95243 whole entry, the tested form may be a part): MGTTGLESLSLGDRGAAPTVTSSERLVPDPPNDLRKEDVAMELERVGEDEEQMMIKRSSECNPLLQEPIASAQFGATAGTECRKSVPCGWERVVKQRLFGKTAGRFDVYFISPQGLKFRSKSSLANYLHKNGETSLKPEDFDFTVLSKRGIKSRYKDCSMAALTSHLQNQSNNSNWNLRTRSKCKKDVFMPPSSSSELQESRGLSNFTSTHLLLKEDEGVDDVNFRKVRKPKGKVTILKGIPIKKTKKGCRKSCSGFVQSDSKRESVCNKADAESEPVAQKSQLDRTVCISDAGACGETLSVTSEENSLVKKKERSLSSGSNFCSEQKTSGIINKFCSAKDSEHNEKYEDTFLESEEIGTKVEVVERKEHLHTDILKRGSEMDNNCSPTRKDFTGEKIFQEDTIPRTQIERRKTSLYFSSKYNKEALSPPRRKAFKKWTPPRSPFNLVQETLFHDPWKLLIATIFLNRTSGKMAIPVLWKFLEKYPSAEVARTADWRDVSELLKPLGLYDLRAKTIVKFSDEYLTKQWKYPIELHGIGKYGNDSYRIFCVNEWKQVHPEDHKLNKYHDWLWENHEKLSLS

[5] = molecular target: T2, Endonuclease 8-like 2 (Homo sapiens) (UniProt Q969S2); conditions: Compound Concentration 10.0 uM, Hit No;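 note: fluorescence at 594 nm reports NEIL2 cutting and release of a quenched double-stranded DNA oligo substrate, reduced signal read as inhibition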
T2 sequence (whole entry): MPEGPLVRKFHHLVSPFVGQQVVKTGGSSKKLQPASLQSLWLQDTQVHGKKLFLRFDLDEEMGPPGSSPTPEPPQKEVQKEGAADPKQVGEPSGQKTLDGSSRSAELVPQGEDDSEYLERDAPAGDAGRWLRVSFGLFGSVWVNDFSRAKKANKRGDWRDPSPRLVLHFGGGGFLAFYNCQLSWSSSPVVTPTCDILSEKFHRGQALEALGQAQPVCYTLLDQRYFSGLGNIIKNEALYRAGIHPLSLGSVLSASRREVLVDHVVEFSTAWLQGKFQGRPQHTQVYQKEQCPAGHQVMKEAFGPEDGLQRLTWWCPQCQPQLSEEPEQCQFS
Description: Inhibition of NEIL2 by quantifying inhibition of NEIL2-mediated cleavage and dissociation of quenched duplex DNA oligonucleotides, measured as fluorescence at 594 nm.

[6] = molecular target: N-glycosylase/DNA lyase (Homo sapiens) (UniProt O15527); conditions: Hit No;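 note: OGG1 cleavage of a quenched duplex DNA oligonucleotide, coupled to APE1 for strand incision, read as fluorescence at 594 nm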
N-glycosylase/DNA lyase (Homo sapiens), sequence (O15527 whole entry): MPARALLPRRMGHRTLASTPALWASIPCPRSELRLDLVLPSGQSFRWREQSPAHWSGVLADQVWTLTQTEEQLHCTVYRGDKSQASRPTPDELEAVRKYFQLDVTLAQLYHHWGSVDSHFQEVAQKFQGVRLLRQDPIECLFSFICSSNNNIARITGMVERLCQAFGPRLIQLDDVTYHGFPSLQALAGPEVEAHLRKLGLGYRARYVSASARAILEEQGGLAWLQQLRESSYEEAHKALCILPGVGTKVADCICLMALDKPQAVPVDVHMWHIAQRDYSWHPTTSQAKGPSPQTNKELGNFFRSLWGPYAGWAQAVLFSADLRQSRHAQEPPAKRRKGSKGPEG
Description: Inhibition of OGG1 by quantifying inhibition of OGG1-mediated cleavage and dissociation of quenched duplex DNA oligonucleotides, measured as fluorescence at 594 nm. To generate a functional strand incision and increase turn-over this assay is coupled to APE1.

[7] = molecular target: T3, Single-strand selective monofunctional uracil DNA glycosylase (Homo sapiens) (UniProt Q53HV7); conditions: Hit No;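 note: enzymatic SMUG1 assay coupled with APE1, reading fluorescence at 594 nm released when a quenched double-stranded DNA oligonucleotide substrate is cleaved and separated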
T3 sequence (whole entry): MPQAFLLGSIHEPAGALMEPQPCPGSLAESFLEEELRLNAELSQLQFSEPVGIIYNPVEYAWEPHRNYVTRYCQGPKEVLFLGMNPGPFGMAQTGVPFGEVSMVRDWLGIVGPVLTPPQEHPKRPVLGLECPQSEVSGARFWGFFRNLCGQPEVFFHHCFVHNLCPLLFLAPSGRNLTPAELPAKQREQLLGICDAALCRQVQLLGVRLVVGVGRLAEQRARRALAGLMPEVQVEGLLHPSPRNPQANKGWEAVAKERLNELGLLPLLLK

[8] = molecular target: Endonuclease 8-like 1 (Homo sapiens) (UniProt Q96FI4); conditions: Hit No;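 note: fluorescence at 594 nm from quenched duplex DNA oligonucleotides released by NEIL1 cleavage and strand separation, reported as reduction of this enzyme activity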
Endonuclease 8-like 1 (Homo sapiens), sequence (Q96FI4 whole entry): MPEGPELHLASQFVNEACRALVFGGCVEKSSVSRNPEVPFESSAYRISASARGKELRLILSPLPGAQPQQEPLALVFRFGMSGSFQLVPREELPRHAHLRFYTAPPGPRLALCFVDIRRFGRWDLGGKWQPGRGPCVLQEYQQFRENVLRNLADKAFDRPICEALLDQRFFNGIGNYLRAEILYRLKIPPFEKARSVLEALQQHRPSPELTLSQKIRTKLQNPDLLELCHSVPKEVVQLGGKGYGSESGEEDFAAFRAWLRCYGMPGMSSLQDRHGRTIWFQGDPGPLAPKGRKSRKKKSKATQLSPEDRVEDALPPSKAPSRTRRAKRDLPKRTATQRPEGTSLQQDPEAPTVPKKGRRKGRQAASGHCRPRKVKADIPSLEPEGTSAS

G/T mismatch-specific thymine DNA glycosylase (Homo sapiens), sequence (Q13569 whole entry): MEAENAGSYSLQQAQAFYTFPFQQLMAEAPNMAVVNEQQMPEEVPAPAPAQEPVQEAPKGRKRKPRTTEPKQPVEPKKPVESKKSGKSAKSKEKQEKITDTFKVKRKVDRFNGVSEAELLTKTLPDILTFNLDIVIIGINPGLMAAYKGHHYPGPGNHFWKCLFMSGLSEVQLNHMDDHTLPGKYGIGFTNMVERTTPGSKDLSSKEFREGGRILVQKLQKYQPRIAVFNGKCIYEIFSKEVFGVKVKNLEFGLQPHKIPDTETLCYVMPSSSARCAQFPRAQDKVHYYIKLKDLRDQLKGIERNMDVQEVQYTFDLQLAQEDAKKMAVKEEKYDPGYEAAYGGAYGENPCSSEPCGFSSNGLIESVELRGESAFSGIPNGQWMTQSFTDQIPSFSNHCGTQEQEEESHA

Structure (SMILES)	inhibition ([1]; Compound Concentration 10.0 uM) [%]	inhibition ([2]; Compound Concentration 10.0 uM) [%]	inhibition ([3]; Compound Concentration 10.0 uM) [%]	inhibition ([4]; Compound Concentration 10.0 uM) [%]	inhibition [5] [%]	inhibition ([6]; Compound Concentration 10.0 uM) [%]	inhibition ([7]; Compound Concentration 10.0 uM) [%]	inhibition ([8]; Compound Concentration 10.0 uM) [%]	inhibition ([1]; Compound Concentration 1.0 uM) [%]	inhibition ([2]; Compound Concentration 1.0 uM) [%]	inhibition ([8]; Compound Concentration 1.0 uM) [%]	inhibition ([6]; Compound Concentration 1.0 uM) [%]	inhibition ([3]; Compound Concentration 1.0 uM) [%]	inhibition ([4]; Compound Concentration 1.0 uM) [%]	inhibition ([7]; Compound Concentration 1.0 uM) [%]
Cc1cc2c(-c3ccco3)cnc(N[C@@H]3CCN(C)C[C@H]3C(=O)NC3CCCCC3)c2[nH]c1=O	33.3	-9.18	-3.36	58.5	–	–	–	–	–	–	–	–	–	–	–
O=C(NCCS(=O)(=O)c1ccc(C(F)(F)F)cn1)c1ccc(Cl)cc1	97.2	-0.63	0.131	55.1	1.3	-0.41	13.1	–	–	–	–	–	–	–	–
C[C@@H]1CN(c2nccc(Nc3ccc4c(c3)n(CCC(C)(C)O)c(=O)n4C)n2)C[C@H](C)C1(F)F	98.6	-0.63	5.07	56.2	-8.14	–	7.55	-3.77	–	–	–	–	–	–	–
COc1ccnc(N2CCC3(CCCN(Cc4c[nH]c5ccccc45)C3=O)CC2)n1	4.73	6.32	–	-0.547	-0.983	-2.11	15.5	9.14	–	–	–	–	–	–	–
CCOc1cc(N2CCC(O)CC2)ccc1Nc1ncc2c(n1)N(C1CCCC1)CCC(=O)N2C	36.7	-6.19	-0.0214	-5.19	–	–	12.4	-5.28	–	–	–	–	–	–	–
CCC1(C2=NCCN2)Cc2ccccc2O1 (stereo not drawn)	2.85	1.19	-0.713	3.23	-5.22	-0.183	–	-9.99	–	–	–	–	–	–	–
COc1c(OCCCN2CCOCC2)ccc2c1N=C(NC(=O)c1cnc(N)nc1)N1CCN=C21	–	–	–	–	–	–	–	–	26.4	4.97	-8.98	5.38	-3.63	-2.38	20
CO[C@@H](C)c1c(Nc2ccc([C@@H](N(C)C(=O)C3CCS(=O)(=O)CC3)C(F)(F)F)cc2)cnc2cc(Cl)nn12	42.7	-9.83	0.795	93.9	0.0213	–	13.4	-6.35	–	–	–	–	–	–	–
COc1ccc(CC[C@@H](OC(=O)[C@@H]2CCCCN2C(=O)[C@H](c2cc(OC)c(OC)c(OC)c2)C2CCCCC2)c2cccc(OCCN3CCOCC3)c2)cc1OC	31.2	-7.86	0.833	43.3	–	-4.59	4.21	–	–	–	–	–	–	–	–
CC1=C(C(=O)Nc2cc3cn[nH]c3cc2F)C(c2ccc(C(F)(F)F)cc2)CC(=O)N1 (stereo not drawn)	34.3	-2.7	7.25	18	3.2	–	22.4	4.1	–	–	–	–	–	–	–
C[C@H](NC(=O)c1cnc2n1[C@](C)(Cc1ccc(C#N)cc1)C(=O)N2c1cc(Cl)c(F)c(Cl)c1)C(=O)NC1(c2ccccn2)CC1	52.5	-4.57	7.8	60.9	-4.83	–	22.8	5.16	–	–	–	–	–	–	–
CC(C)c1c(NC(=O)Nc2ccc(Cl)cc2)c(=O)n(-c2ccccc2)n1C	-4.69	12.9	–	31.2	-6.97	-7	-6.14	4.99	–	–	–	–	–	–	–
CCCCCCCCCCCCC/C=C/[C@@H](O)[C@@H](N)COP(=O)([O-])OCC[N+](C)(C)C	–	-8.51	-1	-8.69	-4.94	5.72	-8.04	–	–	–	–	–	–	–	–
COc1cccc(CNC(=O)c2nc3scc(CN(C)Cc4ccccc4)c3c(=O)[nH]2)c1	43.2	-9.83	2.11	59.5	–	4.36	12.8	-6.05	–	–	–	–	–	–	–
CC(C)(C)OC(=O)N1CCCC1CNC1CCC(c2cc(F)ccc2F)(S(=O)(=O)c2ccc(Cl)cc2)CC1 (stereo not drawn)	17.3	-1.29	1.86	45.5	–	4.85	19.7	–	–	–	–	–	–	–	–
O=C(c1ccc(F)cc1)N1CC(COc2ccc(Br)cc2)(C(=O)O)C1	–	–	–	–	–	–	–	–	52.8	0.685	-7.26	-9.75	0.879	67.1	15.2
O=C(O)[C@@H]1[C@@H](Cn2nnc3ccccc3c2=O)CC[C@H]1C(=O)c1ccc(OCCC2CCOCC2)cc1	49.2	-5.23	2.54	57.8	–	7.75	18.6	–	–	–	–	–	–	–	–
CCOc1cn(-c2ccc(F)cc2C)nc1C(=O)Nc1ccc(Oc2ccnc3cc(OC)c(OC)cc23)c(F)c1	–	–	–	–	–	–	–	–	46.5	-2	0.138	–	1.39	31.6	21.7
Cn1cc(-c2ccc3occ(-c4cccc(-c5ccncc5)c4)c3n2)cn1	42.6	-8.98	-1.77	-1.5	-5.69	–	13.1	-1.18	–	–	–	–	–	–	–
CN(C)C(=O)c1sc2nc(N3CCC(S(C)(=O)=O)CC3)cc(C(F)(F)F)c2c1N	-5.21	2.05	–	1.76	–	-1.24	-2.07	-3.24	–	–	–	–	–	–	–
COc1ccc([C@@H]2Sc3ccccc3N(CCN(C)C)C(=O)[C@@H]2OC(C)=O)cc1	-1.73	30.3	-4.36	-5.04	–	–	0.325	3.71	–	–	–	–	–	–	–
Cn1ncnc1COc1nn2c(-c3c(F)cccc3F)nnc2cc1C1CCC1	15.4	22.9	-7.24	-5.71	-3.41	–	1.23	7.71	–	–	–	–	–	–	–
N#CC1(c2ccccn2)CCN(Cc2cc(C(=O)O)c(=O)n3ccccc23)CC1	45.8	-9.18	1.66	93	0.531	-3.75	–	-0.139	–	–	–	–	–	–	–
CNC[C@H](O)c1cccc(O)c1	-5.83	-9.8	–	-3.74	7.25	-3.42	-2.99	-4.8	–	–	–	–	–	–	–
Cc1n[nH]c2ncc(C(=O)N3CCC[C@H]3c3ccc(Cl)cc3)cc12	–	–	–	–	–	–	–	–	31.7	7.06	-3.69	-6.69	-1.69	9.29	8.72
COc1cc(C(=O)O)ncc1C#Cc1ccccc1NS(=O)(=O)c1cccc2c(N(C)C)ccnc12	46.3	-8.52	2.52	66.6	6.91	–	6.29	-0.29	–	–	–	–	–	–	–
Cc1cnc(Nc2ccc(F)cc2Cl)nc1-c1c[nH]c(C(=O)N[C@H](CO)c2cccc(Cl)c2)c1	–	–	–	–	–	–	–	–	46.4	-6.19	-0.127	-8.42	2.73	-4.19	23.9
CCc1cc(Nc2nccc(-c3c(-c4ccc(OC)c(C(=O)Nc5c(F)cccc5F)c4)nc4ccccn34)n2)c(OC)cc1N1CCC(N2CCN(S(C)(=O)=O)CC2)CC1	–	–	–	–	–	–	–	–	50.7	-1.31	-8.84	10.7	0.56	32.9	21.4
CSc1cccnc1N1CCN(Cc2nc3ccccc3[nH]2)CC1	19.8	-5.89	0.535	54.7	–	6.57	6.69	–	–	–	–	–	–	–	–
CN(C)C(=O)C(CCN1CCC(O)(c2ccc(Cl)cc2)CC1)(c1ccccc1)c1ccccc1	5.3	28.3	-5.39	–	7.75	-5.28	-1.44	7.8	–	–	–	–	–	–	–
